Reference: patent publication US7094593B1, “Method for improving the function of heterologous G protein-coupled receptors” (priority 1998, dated 2006)

Legend:
[1] = target: IC3Δ human alpha2A adrenergic receptor (Homo sapiens, UniProt P08913, DEL273-347)
Experimental: (§2) Yeast cells containing the wild type IC3Δ human alpha2A adrenergic receptor were assayed in liquid culture using the alpha adrenergic receptor full agonist UK14304 (RBI) and partial agonist clonidine.

[2] = target: wild type human alpha2A adrenergic receptor (Homo sapiens, UniProt P08913); conditions: yeast cells containing wild type receptor, 18 hours
Experimental: as §2

DMAR-M3 MAR IC3Δ = target: T1, DMAR-M3 MAR IC3Δ (Drosophila melanogaster, UniProt P16395, C285T/D301E/F279L/F286I/K296E/N304G/P303A/Q299T/R293K/W292Y); assay: Liquid culture yeast growth assay, mutated DMAR containing the M3 MAR IC3Δ; assay type: cell-based, D. melanogaster; conditions: yeast cells containing mutated DMAR with M3 MAR IC3Δ
T1 construct: expressed in transfected cells; host or cells: Saccharomyces cerevisiae MPY578fc, plasmid p426GPD
Experimental: (§1) In order to construct the IC3 replacement, PCR fragments encoding three domains were prepared by standard means. Fragment 1 consisted of the amino terminal coding portion of the Drosophila MAR up to an Agel site within the 5th TMD, amplified by PCR using oligonucleotides (AAA AGATCT AAA ATG […]) (SEQ ID NO: 7) and (CCA GTA GAG GAA […] AGGCCT AAGTAGAAGGCGGCCAGTGC) (SEQ ID NO: 8). The second fragment of the DMAR was composed of carboxy terminal coding sequences starting with a PmII site in the 6th TMD, amplified by PCR using oligonucleotides ([…]) (SEQ ID NO: 9) and (AAA CTCGAG […]) (SEQ ID NO: 10). The M3 MAR IC3Δ domain was amplified as an Agel-PmII fragment with coding sequence in frame with fragments 1 and 2, described in Example 1. These fragments were assembled in plasmid p426GPD to place the mutated DMAR under control of the GPD promoter. The wild type DMAR was cloned into the expression vector, pMP3, described in U.S. Pat. No. 5,691,188.

[3] = target: T2, wild type D. melanogaster MAR (DMAR) (Drosophila melanogaster, UniProt P16395); assay: Liquid culture yeast growth assay, wild type DMAR; assay type: cell-based; conditions: yeast cells containing wild type DMAR
T2 construct: expressed in transfected cells; host or cells: Saccharomyces cerevisiae MPY578fc, plasmid pMP3
T2 sequence (P16395 1-805): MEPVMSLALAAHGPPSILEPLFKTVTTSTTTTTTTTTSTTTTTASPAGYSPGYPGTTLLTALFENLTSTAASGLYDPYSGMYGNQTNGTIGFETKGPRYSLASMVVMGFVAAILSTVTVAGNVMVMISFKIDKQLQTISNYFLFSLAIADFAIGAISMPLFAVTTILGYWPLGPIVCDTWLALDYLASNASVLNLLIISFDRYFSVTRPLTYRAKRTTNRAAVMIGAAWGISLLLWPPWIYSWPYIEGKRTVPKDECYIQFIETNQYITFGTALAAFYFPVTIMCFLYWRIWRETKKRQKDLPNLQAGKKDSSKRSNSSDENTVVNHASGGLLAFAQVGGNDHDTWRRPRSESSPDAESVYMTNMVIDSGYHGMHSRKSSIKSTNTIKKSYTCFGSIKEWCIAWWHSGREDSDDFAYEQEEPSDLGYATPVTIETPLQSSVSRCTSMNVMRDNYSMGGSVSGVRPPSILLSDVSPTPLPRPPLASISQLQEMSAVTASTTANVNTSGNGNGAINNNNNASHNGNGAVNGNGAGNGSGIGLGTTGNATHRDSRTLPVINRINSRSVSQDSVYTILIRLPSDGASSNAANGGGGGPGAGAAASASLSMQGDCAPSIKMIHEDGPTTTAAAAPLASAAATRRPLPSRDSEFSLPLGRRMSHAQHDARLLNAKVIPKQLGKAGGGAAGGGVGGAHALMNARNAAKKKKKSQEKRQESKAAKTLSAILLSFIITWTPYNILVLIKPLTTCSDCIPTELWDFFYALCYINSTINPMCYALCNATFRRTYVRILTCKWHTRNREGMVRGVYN
Experimental: as §1

Ce 5HTR-M3 MAR IC3Δ = assay: Liquid culture yeast growth assay, Ce 5HTR containing the M3 MAR IC3Δ; assay type: cell-based, C. elegans; conditions: for antagonist effect on growth inducing effect of serotonin: antagonist at 10 μM
Experimental: In order to construct the IC3 replacement, PCR fragments encoding three domains were prepared by standard means. Fragment 1 contains the amino terminal-coding portion of the Ce 5HTR to the intracellular interface of the 5th TMD, amplified by PCR using oligonucleotides ([…]) (SEQ ID NO: 27) and ([…] […] […]) (SEQ ID NO: 28). The second fragment of the Ce 5HTR contains carboxy-terminal coding sequences starting proximal to the intracellular interface of the 6th TMD, amplified by PCR using oligonucleotides ([…]) (SEQ ID NO: 29) and ([…] […] […]) (SEQ ID NO: 30). The M3 MAR IC3Δ domain was amplified by PCR as described in Example 1.
These fragments were isolated, mixed and amplified by PCR with 5′ ([…]) (SEQ ID NO: 27) and 3′ ([…]) ([…]) oligonucleotides. The resulting fragment was digested with appropriate restriction endonucleases and assembled in p426GPD to place the mutated Ce 5HTR under control of the GPD promoter.
Yeast cells containing the Ce 5HTR were assayed in liquid culture. […] In similar reactions, the serotonergic antagonists lisuride and mianserin were added to each well at 10 μM. […] Ki values were determined using the equation of Cheng and Pruesoff. (Y Cheng et al. (1973)).

wild type human alpha2A adrenergic receptor, sequence (P08913 whole entry): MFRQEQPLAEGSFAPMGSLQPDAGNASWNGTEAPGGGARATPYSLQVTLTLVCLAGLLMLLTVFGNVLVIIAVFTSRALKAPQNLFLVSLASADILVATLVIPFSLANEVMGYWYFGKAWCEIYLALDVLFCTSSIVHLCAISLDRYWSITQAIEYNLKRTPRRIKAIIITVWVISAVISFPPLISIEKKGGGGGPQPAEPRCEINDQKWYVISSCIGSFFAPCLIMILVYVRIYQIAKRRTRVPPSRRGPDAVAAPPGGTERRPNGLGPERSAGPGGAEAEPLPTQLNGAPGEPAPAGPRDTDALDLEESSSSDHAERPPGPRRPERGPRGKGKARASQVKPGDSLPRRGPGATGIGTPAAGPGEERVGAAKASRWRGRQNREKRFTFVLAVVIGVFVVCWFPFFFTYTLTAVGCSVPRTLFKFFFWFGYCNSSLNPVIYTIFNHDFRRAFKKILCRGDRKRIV
IC3Δ human alpha2A adrenergic receptor, sequence (P08913 with tags, fused parts or gaps DEL273-347 limits assumed): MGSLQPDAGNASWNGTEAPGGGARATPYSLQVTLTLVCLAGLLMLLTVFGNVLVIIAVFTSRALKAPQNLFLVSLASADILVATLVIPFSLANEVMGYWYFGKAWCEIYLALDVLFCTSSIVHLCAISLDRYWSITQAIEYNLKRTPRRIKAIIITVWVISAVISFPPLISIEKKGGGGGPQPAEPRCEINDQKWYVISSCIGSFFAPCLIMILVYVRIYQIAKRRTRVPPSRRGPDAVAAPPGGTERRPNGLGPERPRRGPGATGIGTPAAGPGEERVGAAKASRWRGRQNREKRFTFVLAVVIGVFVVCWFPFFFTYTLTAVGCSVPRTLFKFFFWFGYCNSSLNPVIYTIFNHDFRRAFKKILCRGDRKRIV
T1 sequence (P16395 other isoform, or with tags, fused parts or gaps F279L/C285T/F286I/W292Y/R293K/K296E/Q299T/D301E/P303A/N304G): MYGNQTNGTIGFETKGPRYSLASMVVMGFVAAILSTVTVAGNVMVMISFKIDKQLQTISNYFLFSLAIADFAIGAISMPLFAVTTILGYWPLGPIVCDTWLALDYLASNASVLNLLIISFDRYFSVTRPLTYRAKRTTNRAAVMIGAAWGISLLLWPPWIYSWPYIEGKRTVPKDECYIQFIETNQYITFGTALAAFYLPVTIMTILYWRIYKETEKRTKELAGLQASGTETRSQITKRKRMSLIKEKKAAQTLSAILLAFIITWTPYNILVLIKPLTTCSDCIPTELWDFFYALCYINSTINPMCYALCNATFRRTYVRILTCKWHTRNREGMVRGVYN

Brc1c(NC2=NCCN2)ccc2nccnc12 [UK14304]
yeast cell growth response [1]: dose-dependent growth response | yeast cell growth response [2]: dose-dependent growth response

C[N+](C)(C)CCOC(N)=O [carbachol]
agonist-dependent yeast cell growth (DMAR-M3 MAR IC3Δ): agonist-dependent growth response | agonist-dependent yeast cell growth [3]: lack of agonist-dependent yeast cell growth

CCN(CC)C(=O)N[C@H]1C=C2c3cccc4[nH]cc(c34)C[C@H]2N(C)C1 [lisuride]
antagonist effect on growth inducing effect of serotonin (Ce 5HTR-M3 MAR IC3Δ): blocked

CN1CCN2c3ccccc3Cc3ccccc3C2C1 (stereo not shown) [mianserin]
antagonist effect on growth inducing effect of serotonin (Ce 5HTR-M3 MAR IC3Δ): blocked

NCCc1c[nH]c2ccc(O)cc12 [serotonin]
agonist-dependent yeast cell growth (Ce 5HTR-M3 MAR IC3Δ; yeast cells containing Ce 5HTR-M3 MAR IC3Δ, 18 hours): agonist-dependent growth response
